Measured values reported in article PMC7698210 (International Journal of Molecular Sciences, 2020).
Where two headings read alike, the source gives them in different places.

Key:
Test in all cases: cell-based
H2R [1] = target: T1, H2R (Homo sapiens, UniProt P25021); set-up: species or system HEK293T; details: HEK-293T; read-out: Mini G Protein Recruitment / Emax [%]
T1 construct: gene HRH2; full receptor, C-terminal NlucC tag (11 aa split-NanoLuc fragment); co-expressed with NlucN-mGs (mini-Gs393) in HEK293T

H1R [2] = target: T2, H1R (Homo sapiens, UniProt P35367); set-up: gene HRH1; full receptor, C-terminal NlucC tag (11 aa split-NanoLuc fragment); co-expressed with NlucN-mGsq (mini-Gs/q71) in HEK293T; species or system HEK293T; details: HEK-293T, read-out: Mini G Protein Recruitment / Emax [%]
H2R [3] = target: T1, H2R; set-up: species or system HEK293T; details: HEK-293T; read-out: Mini G Protein Recruitment / Emax [%]; remark: listed apart in the source
H1R [4] = target: T2, H1R; set-up: gene HRH1; details: HEK-293T, read-out: Mini G Protein Recruitment / Emax [%]

T1 sequence (P25021 whole entry, the tested form may be a part): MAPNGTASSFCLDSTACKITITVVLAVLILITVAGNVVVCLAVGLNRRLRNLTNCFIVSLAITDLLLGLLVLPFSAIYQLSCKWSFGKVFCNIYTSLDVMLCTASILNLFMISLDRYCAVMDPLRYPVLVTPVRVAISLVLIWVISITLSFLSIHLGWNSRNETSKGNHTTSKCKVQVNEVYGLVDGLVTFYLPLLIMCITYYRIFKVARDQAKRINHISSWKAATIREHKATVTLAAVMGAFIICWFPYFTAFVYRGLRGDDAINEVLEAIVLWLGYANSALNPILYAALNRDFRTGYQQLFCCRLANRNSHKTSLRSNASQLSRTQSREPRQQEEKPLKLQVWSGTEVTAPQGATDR
T2 sequence (P35367 whole entry, the tested form may be a part): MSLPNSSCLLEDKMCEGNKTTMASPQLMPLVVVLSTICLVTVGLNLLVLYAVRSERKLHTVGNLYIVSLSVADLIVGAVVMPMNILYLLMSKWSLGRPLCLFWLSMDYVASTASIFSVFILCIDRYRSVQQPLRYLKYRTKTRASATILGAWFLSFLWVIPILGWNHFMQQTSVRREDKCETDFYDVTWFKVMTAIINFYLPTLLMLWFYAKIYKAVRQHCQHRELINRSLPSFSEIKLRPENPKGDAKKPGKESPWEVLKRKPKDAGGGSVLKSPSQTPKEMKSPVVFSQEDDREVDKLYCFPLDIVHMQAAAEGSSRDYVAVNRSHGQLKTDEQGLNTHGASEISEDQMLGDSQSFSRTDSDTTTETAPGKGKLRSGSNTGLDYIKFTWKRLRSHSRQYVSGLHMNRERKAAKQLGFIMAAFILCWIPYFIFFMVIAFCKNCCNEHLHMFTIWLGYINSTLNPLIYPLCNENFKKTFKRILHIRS

Row | SMILES | Emax (H2R [1]) | Emax (H1R [2]) | Emax (H2R [3]) | further results
1 | CN(C)CCCSC(=N)N [dim, dimaprit] | 94 ± 2.6% |  |  | 
2 | Cc1[nH]cnc1CSCCNC(=N)NCCCc1c[nH]cn1 [impro, impromidine] | 90 ± 1.5% |  |  | 
3 | NCCc1c[nH]c(CCC(c2ccccc2)c2ccccc2)n1 [histapro, histaprodifen] |  | 33 ± 2% |  | 
4 | c1ccc(C(CCc2nc(CCNCCc3c[nH]cn3)c[nH]2)c2ccccc2)cc1 [suprahis, suprahistaprodifen] |  | 49 ± 3.7% |  | 
5 | Cc1[nH]cnc1CCN [4mhis, 4-methylhistamine] | 93 ± 2.2% | 44 ± 2.4% |  | 
6 | CCC(=O)NC(N)=NCCCc1cnc[nH]1 [PI294, UR-PI294] | 95 ± 1.1% | 29 ± 1.4% |  | 
7 | CNC(=C[N+](=O)[O-])NCCSCc1ccc(CN(C)C)o1 [ran, ranitidine] |  |  | -8 ± 0.7% | 
8 | NC(N)=Nc1nc(CSCCC(N)=NS(N)(=O)=O)cs1 [fam, famotidine] |  |  | -9 ± 0.7% | 
9 | CNCCc1cnc[nH]1 [Namh, N^α-methylhistamine] | 93 ± 1.7% | 99 ± 2% |  | 
10 | CN=C(NC#N)NCCSCc1nc[nH]c1C [cim, cimetidine] |  |  | -8 ± 0.8% | 
11 | Cc1nc(N)sc1CCN [amt, amthamine] | 105 ± 2.8% |  |  | 
12 | NCCc1c[nH]cn1 [his, histamine] |  |  | 100% | Emax (H1R [4]): 100%
